In this assay the target is GCN2 (Homo sapiens (Human), UniProt Q9P2K8). The assay can be described thus: GCN2 Biochemical Assay (TR-FRET, GFP-eIF2S1 substrate phosphorylation). As to conditions: read-out: IC50 (GCN2 Inhibitory Activity). Summed up: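 TR-FRET readout (Ex 340, Em 490/520 nm) after 2–3 h with Tb-labelled phospho-eIF2S1 antibody in stop mix, following a 70 min room-temperature kinase step. Reaction: in-house GCN2, GFP-eIF2S1, ATP, tRNA in Tris pH 7.5 (2× stocks 1.6 nM, 50 nM, 0.2 mM); compounds tested at 10 concentrations, with a phospho-substrate artifact counter-plate.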
For orientation: TR-FRET usually uses a lanthanide donor and a delayed reading to cut background.

Data on 25 compounds can be found in patent US20240025884A1 (Dong-A ST Co., Ltd., priority 2022, published 2024).

Sequence of GCN2 (Q9P2K8 whole entry): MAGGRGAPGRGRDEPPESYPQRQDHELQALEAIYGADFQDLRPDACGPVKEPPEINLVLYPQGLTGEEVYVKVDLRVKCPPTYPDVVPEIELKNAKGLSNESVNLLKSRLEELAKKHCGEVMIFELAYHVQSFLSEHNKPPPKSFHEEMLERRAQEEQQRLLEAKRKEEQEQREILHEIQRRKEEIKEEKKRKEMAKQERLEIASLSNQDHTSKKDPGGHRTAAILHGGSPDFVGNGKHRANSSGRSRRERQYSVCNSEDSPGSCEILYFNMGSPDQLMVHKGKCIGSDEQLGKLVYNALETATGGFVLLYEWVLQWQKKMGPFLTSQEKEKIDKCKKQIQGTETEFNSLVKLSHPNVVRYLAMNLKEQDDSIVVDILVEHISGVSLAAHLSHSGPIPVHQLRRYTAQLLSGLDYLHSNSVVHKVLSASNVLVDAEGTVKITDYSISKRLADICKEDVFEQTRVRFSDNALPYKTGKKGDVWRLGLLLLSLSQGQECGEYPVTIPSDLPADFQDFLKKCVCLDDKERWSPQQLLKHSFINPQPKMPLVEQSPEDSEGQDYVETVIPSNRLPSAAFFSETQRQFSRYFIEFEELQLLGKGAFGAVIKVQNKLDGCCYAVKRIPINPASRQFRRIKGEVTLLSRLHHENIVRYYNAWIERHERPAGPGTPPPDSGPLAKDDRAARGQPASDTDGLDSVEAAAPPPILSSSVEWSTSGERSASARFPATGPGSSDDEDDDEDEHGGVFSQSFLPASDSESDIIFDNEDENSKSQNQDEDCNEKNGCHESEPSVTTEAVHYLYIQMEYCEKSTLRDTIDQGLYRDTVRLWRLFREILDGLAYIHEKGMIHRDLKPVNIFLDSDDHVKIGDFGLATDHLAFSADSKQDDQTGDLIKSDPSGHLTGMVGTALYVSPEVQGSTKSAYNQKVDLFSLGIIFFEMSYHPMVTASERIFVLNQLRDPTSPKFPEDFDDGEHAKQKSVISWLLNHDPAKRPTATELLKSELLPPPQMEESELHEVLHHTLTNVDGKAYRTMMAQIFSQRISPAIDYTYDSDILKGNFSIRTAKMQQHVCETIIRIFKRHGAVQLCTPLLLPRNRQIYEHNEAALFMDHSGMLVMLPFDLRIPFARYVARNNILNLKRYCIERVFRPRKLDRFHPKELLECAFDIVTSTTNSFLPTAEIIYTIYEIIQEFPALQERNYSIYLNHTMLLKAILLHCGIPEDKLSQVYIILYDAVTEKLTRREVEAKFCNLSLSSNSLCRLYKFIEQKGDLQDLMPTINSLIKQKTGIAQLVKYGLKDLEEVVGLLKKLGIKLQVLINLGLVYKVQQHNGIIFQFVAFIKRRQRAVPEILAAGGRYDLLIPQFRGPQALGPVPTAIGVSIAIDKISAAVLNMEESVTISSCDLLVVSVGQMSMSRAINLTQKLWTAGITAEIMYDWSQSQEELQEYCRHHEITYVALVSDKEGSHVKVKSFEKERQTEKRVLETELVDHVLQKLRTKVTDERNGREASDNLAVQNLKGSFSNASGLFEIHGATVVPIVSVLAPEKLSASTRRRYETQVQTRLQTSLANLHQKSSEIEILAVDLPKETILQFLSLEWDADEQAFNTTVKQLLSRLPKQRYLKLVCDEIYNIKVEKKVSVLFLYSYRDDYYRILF

As a reminder, the IC50 is the concentration that inhibits the measured activity by half. As to `Cc1cnc(Nc2cc(C)n(C)n2)nc1-c1c[nH]c2c(N3Cc4c(ccnc4-c4ccnc(F)c4)C3=O)cccc12` [Example 504, 2-(3-(2-((1,5-dimethyl-1H-pyrazol-3-yl)amino)-5-methylpyrimidin-4-yl)-1H-indol-7-yl)-4-(2-fluoropyridin-4-yl)-2,3-dihydro-1H-pyrrolo[3,4-c]pyridin-1-one], the IC50 is under 10 nM.

Turning to `Cc1cnc(Nc2cc(C)n(C)n2)nc1-c1c[nH]c2c(NC(=O)CN3CC[C@H](Oc4ccc(Cl)cc4)C3)cccc12` [Example 82, (S)-2-(3-(4-chlorophenoxy)pyrrolidin-1-yl)-N-(3-(2-((1,5-dimethyl-1H-pyrazol-3-yl)amino)-5-methylpyrimidin-4-yl)-1H-indol-7-yl)acetamide], the IC50 lay in the range of 100 to 1000 nM. Next, `Cc1cnc(Nc2cc(C)n(C)n2)nc1-c1c[nH]c2c(N3Cc4c(cccc4-c4cnn(CC5CC5)c4)C3=O)cccc12` [Example 415, 4-(1-(cyclopropylmethyl)-1H-pyrazol-4-yl)-2-(3-(2-((1,5-dimethyl-1H-pyrazol-3-yl)amino)-5-methylpyrimidin-4-yl)-1H-indol-7-yl)isoindolin-1-one]: under 10 nM. Regarding `Cc1cnc(Nc2cc(C)n(C)n2)nc1-c1c[nH]c2c(N3Cc4c(-c5ccnc(N(C)C)c5)ccc(F)c4C3=O)cccc12` [Example 483, 2-(3-(2-((1,5-dimethyl-1H-pyrazol-3-yl)amino)-5-methylpyrimidin-4-yl)-1H-indol-7-yl)-4-(2-(dimethylamino)pyridin-4-yl)-7-fluoroisoindolin-1-one], the IC50 is under 10 nM. With `Cc1cnc(Nc2cc(C)n(C)n2)nc1-c1c[nH]c2c(N3Cc4c(cccc4-c4ccnc(F)c4)C3=O)cccc12` [Example 404, 2-(3-(2-((1,5-dimethyl-1H-pyrazol-3-yl)amino)-5-methylpyrimidin-4-yl)-1H-indol-7-yl)-4-(2-fluoropyridin-4-yl)isoindolin-1-one], the IC50 is under 10 nM. Next, `Cc1cnc(Nc2cc(C)n(C)n2)nc1-c1c[nH]c2c(N3Cc4cc(-c5ccccc5)ccc4C3=O)cccc12` [Example 378, 2-(3-(2-((1,5-dimethyl-1H-pyrazol-3-yl)amino)-5-methylpyrimidin-4-yl)-1H-indol-7-yl)-5-phenylisoindolin-1-one]: over 1000 nM. As for `Cc1cnc(Nc2cc(C)n(C)n2)nc1-c1c[nH]c2c(N3Cc4c(C#Cc5ccccc5)cccc4C3=O)cccc12` [Example 356, 2-(3-(2-((1,5-dimethyl-1H-pyrazol-3-yl)amino)-5-methylpyrimidin-4-yl)-1H-indol-7-yl)-4-(phenylethynyl)isoindolin-1-one], the figure is 100 to 1000 nM. For the compound `Cc1cnc(Nc2cc(C)n(C)n2)nc1-c1c[nH]c2c(NC(=O)CN3CC[C@H](Oc4cccc(F)c4)C3)cccc12` [Example 81, (S)-N-(3-(2-((1,5-dimethyl-1H-pyrazol-3-yl)amino)-5-methylpyrimidin-4-yl)-1H-indol-7-yl)-2-(3-(3-fluorophenoxy)pyrrolidin-1-yl)acetamide], the IC50 lay in the range of 100 to 1000 nM.

As for `Cc1cnc(Nc2cc(C)n(C)n2)nc1-c1c[nH]c2c(N3Cc4c(cccc4-c4ccc(C#N)cc4F)C3=O)cccc12` [Example 433, 4-(2-(3-(2-((1,5-dimethyl-1H-pyrazol-3-yl)amino)-5-methylpyrimidin-4-yl)-1H-indol-7-yl)-1-oxoisoindolin-4-yl)-3-fluorobenzonitrile], the IC50 fell in the range of 10 to 100 nM. As to `CCOC(=O)c1cnoc1O[C@H]1CCN(CC(=O)Nc2cccc3c(-c4nc(Nc5cc(C)n(C)n5)ncc4C)c[nH]c23)C1` [Example 121, ethyl (S)-5-((1-(2-((3-(2-((1,5-dimethyl-1H-pyrazol-3-yl)amino)-5-methylpyrimidin-4-yl)-1H-indol-7-yl)amino)-2-oxoethyl)pyrrolidin-3-yl)oxy)isoxazole-4-carboxylate], the half-maximal inhibitory concentration (IC50) was under 10 nM. `Cc1cc(C)nc(OC2CCN(CC(=O)Nc3cccc4c(-c5nc(Nc6cc(C)n(C)n6)ncc5C)c[nH]c34)CC2)n1` [Example 42, N-(3-(2-((1,5-dimethyl-1H-pyrazol-3-yl)amino)-5-methylpyrimidin-4-yl)-1H-indol-7-yl)-2-(4-((4,6-dimethylpyrimidin-2-yl)oxy)piperidin-1-yl)acetamide]: the half-inhibitory concentration (IC50) is 10 to 100 nM.

Turning to `Cc1cnc(Nc2cc(C)n(C)n2)nc1-c1c[nH]c2c(NC(=O)CN3CC[C@H](Oc4cnc(NCCN(C)C)nc4)C3)cccc12` [Example 239, (S)-N-(3-(2-((1,5-dimethyl-1H-pyrazol-3-yl)amino)-5-methylpyrimidin-4-yl)-1H-indol-7-yl)-2-(3-((2-((2-(dimethylamino)ethyl)amino)pyrimidin-5-yl)oxy)pyrrolidin-1-yl)acetamide], the IC50 is 10 to 100 nM.

`CCNc1nc(O[C@H]2CCN(CC(=O)Nc3cccc4c(-c5nc(Nc6cc(C)n(C)n6)ncc5C)c[nH]c34)C2)ncc1F` [Example 178, (S)-N-(3-(2-((1,5-dimethyl-1H-pyrazol-3-yl)amino)-5-methylpyrimidin-4-yl)-1H-indol-7-yl)-2-(3-((4-(ethylamino)-5-fluoropyrimidin-2-yl)oxy)pyrrolidin-1-yl)acetamide]: the IC50 was under 10 nM.

As for `CNC(=O)c1cc(O[C@H]2CCN(CC(=O)Nc3cccc4c(-c5nc(Nc6cc(C)n(C)n6)ncc5C)c[nH]c34)C2)no1` [Example 123, (S)-3-((1-(2-((3-(2-((1,5-dimethyl-1H-pyrazol-3-yl)amino)-5-methylpyrimidin-4-yl)-1H-indol-7-yl)amino)-2-oxoethyl)pyrrolidin-3-yl)oxy)-N-methylisoxazole-5-carboxamide], the IC50 lay within 10 to 100 nM. As for `Cc1cnc(Nc2cc(C)n(C)n2)nc1-c1c[nH]c2c(N3Cc4ccc(C#Cc5ccccc5)cc4C3=O)cccc12` [Example 355], the figure is over 1000 nM.

Regarding `Cc1cnc(Nc2cc(C)n(C)n2)nc1-c1c[nH]c2c(NC(=O)CN3CC[C@H](Oc4cc(NCCO)ncn4)C3)cccc12` [Example 145, (S)-N-(3-(2-((1,5-dimethyl-1H-pyrazol-3-yl)amino)-5-methylpyrimidin-4-yl)-1H-indol-7-yl)-2-(3-((6-((2-hydroxyethyl)amino)pyrimidin-4-yl)oxy)pyrrolidin-1-yl)acetamide], the IC50 was under 10 nM. Next, `Cc1cnc(Nc2cc(C)n(C)n2)nc1-c1c[nH]c2c(NC(=O)CN3CC[C@H](Oc4ncc(F)c(NC5CCCCC5)n4)C3)cccc12` [Example 180, (S)-2-(3-((4-(cyclohexylamino)-5-fluoropyrimidin-2-yl)oxy)pyrrolidin-1-yl)-N-(3-(2-((1,5-dimethyl-1H-pyrazol-3-yl)amino)-5-methylpyrimidin-4-yl)-1H-indol-7-yl)acetamide]: 10 to 100 nM; `Cc1cnc(Nc2cc(C)n(C)n2)nc1-c1c[nH]c2c(NC(=O)CN3CC[C@H](Oc4ccnc(NCC5CC5)n4)C3)cccc12` [Example 213, (S)-2-(3-((2-((cyclopropylmethyl)amino)pyrimidin-4-yl)oxy)pyrrolidin-1-yl)-N-(3-(2-((1,5-dimethyl-1H-pyrazol-3-yl)amino)-5-methylpyrimidin-4-yl)-1H-indol-7-yl)acetamide]: under 10 nM. In the case of `Cc1cnc(Nc2cc(C)n(C)n2)nc1-c1c[nH]c2c(NC(=O)CN3CC(Oc4cccnc4)C3)cccc12` [Example 30, N-(3-(2-((1,5-dimethyl-1H-pyrazol-3-yl)amino)-5-methylpyrimidin-4-yl)-1H-indol-7-yl)-2-(3-(pyridin-3-yloxy)azetidin-1-yl)acetamide], the IC50 lay in the range of 100 to 1000 nM. As for `Cc1cnc(Nc2cc(C)n(C)n2)nc1-c1c[nH]c2c(NC(=O)CN3CC[C@H](Oc4nccc(C(N)=O)n4)C3)cccc12` [Example 129, (S)-2-((1-(2-((3-(2-((1,5-dimethyl-1H-pyrazol-3-yl)amino)-5-methylpyrimidin-4-yl)-1H-indol-7-yl)amino)-2-oxoethyl)pyrrolidin-3-yl)oxy)pyrimidine-4-carboxamide], the half-inhibitory concentration (IC50) fell in the range of 10 to 100 nM. On to `Cc1cnc(Nc2cc(C)n(C)n2)nc1-c1c[nH]c2c(NC(=O)CN3CC[C@H](Oc4nccc(NC5CC5)n4)C3)cccc12` [Example 175, (S)-2-(3-((4-(cyclopropylamino)pyrimidin-2-yl)oxy)pyrrolidin-1-yl)-N-(3-(2-((1,5-dimethyl-1H-pyrazol-3-yl)amino)-5-methylpyrimidin-4-yl)-1H-indol-7-yl)acetamide], for which the IC50 is under 10 nM. For `Cc1cnc(Nc2cc(C)n(C)n2)nc1-c1c[nH]c2c(NC(=O)CN3CC[C@@H](C(=O)N4CCN(C)CC4)C3)cccc12` [Example 65, (R)-N-(3-(2-((1,5-dimethyl-1H-pyrazol-3-yl)amino)-5-methylpyrimidin-4-yl)-1H-indol-7-yl)-2-(3-(4-methylpiperazine-1-carbonyl)pyrrolidin-1-yl)acetamide], the IC50 was 100 to 1000 nM. With `Cc1cc(C(=O)Nc2cccc3c2CN(c2cccc4c(-c5nc(Nc6cc(C)n(C)n6)ncc5C)c[nH]c24)C3=O)no1` [Example 325, N-(2-(3-(2-((1,5-dimethyl-1H-pyrazol-3-yl)amino)-5-methylpyrimidin-4-yl)-1H-indol-7-yl)-1-oxoisoindolin-4-yl)-5-methylisoxazole-3-carboxamide], the IC50 was in the range of 10 to 100 nM. As to `COCCNC(=O)/C=C/c1cccc2c1CN(c1cccc3c(-c4nc(Nc5cc(C)n(C)n5)ncc4C)c[nH]c13)C2=O` [Example 374, (E)-3-(2-(3-(2-((1,5-dimethyl-1H-pyrazol-3-yl)amino)-5-methylpyrimidin-4-yl)-1H-indol-7-yl)-1-oxoisoindolin-4-yl)-N-(2-methoxyethyl)acrylamide], the IC50 is under 10 nM. As for `Cc1cnc(Nc2cc(C)n(C)n2)nc1-c1c[nH]c2c(N3Cc4c(cccc4C4=CCN(C(N)=O)CC4)C3=O)cccc12` [Example 467, 4-(2-(3-(2-((1,5-dimethyl-1H-pyrazol-3-yl)amino)-5-methylpyrimidin-4-yl)-1H-indol-7-yl)-1-oxoisoindolin-4-yl)-3,6-dihydropyridine-1(2H)-carboxamide], the figure is under 10 nM.
